In US11661426B2, “Imidazole-containing inhibitors of ALK2 kinase” (BioCryst Pharmaceuticals, Inc., priority 2017, dated 2023):

Target: ALK2 (Homo sapiens (Human), UniProt Q04771)
Assay: ALK2 inhibition, LanthaScreen Eu Kinase Binding Assay (ThermoFisher Scientific / Life Technologies)
Details: read-out: Measured Ki (IC50) Value for Compounds: IC50
Method: Biochemical assays to measure the inhibitory effects of the compounds were performed by ThermoFisher Scientific (Life Technologies). ALK2 inhibition was tested using LanthaScreen™ Eu Kinase Binding Assay screening protocol.

ALK2, sequence (Q04771 21-509): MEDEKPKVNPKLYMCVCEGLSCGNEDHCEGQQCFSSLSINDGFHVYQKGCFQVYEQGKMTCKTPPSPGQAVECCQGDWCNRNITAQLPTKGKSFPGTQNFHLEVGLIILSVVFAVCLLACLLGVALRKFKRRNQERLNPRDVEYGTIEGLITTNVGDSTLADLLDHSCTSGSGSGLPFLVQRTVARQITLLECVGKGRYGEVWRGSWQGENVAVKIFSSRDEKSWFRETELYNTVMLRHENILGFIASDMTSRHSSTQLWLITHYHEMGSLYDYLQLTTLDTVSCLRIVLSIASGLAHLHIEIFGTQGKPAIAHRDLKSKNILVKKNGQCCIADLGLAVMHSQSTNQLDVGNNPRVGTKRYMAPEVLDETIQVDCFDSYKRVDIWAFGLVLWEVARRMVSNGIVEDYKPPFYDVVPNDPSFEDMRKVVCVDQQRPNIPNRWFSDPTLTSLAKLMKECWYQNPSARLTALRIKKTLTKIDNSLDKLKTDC

Row | IC50 | SMILES
1 | < 100 nM | COc1cc(-n2cnc(Nc3nc(N4CCC[C@H]4CO)nc4cc(F)ccc34)c2)cc(OC)c1OC [Compound 269a, (S)-(1-(7-fluoro-4-((1-(3,4,5-trimethoxyphenyl)-1H-imidazol-4-yl)amino)quinazolin-2-yl)pyrrolidin-2-yl)methanol]
2 | < 100 nM | COc1cc(-n2cnc(Nc3nc(N4CCC[C@H]4CO)nc4c3CN(C(C)C)C4=O)c2)cc(OC)c1OC [Compound 274c, (S)-2-(2-(hydroxymethyl)pyrrolidin-1-yl)-6-isopropyl-4-((1-(3,4,5-trimethoxyphenyl)-1H-imidazol-4-yl)amino)-5H-pyrrolo[3,4-d]pyrimidin-7(6H)-one]
3 | < 100 nM | COc1cc(-n2cnc(Nc3nc(N4CCC[C@@H]4C(N)=O)nc4cc(OC(C)C)ccc34)c2)cc(OC)c1OC [Compound 277a, (R)-1-(7-isopropoxy-4-((1-(3,4,5-trimethoxyphenyl)-1H-imidazol-4-yl)amino)quinazolin-2-yl)pyrrolidine-2-carboxamide]
4 | < 100 nM | COc1cc(-n2cnc(Nc3nc(N4CCC[C@@H]4CO)c4ccc(OC(C)C)cc4n3)c2)cc(OC)c1OC [Compound 278b, (R)-(1-(7-isopropoxy-2-((1-(3,4,5-trimethoxyphenyl)-1H-imidazol-4-yl)amino)quinazolin-4-yl)pyrrolidin-2-yl)methanol]
5 | < 100 nM | COc1cc(-n2cnc(Nc3nc(N4CCC[C@H]4CO)nc4c3COC4)c2)cc(OC)c1OC [Compound 281b, (S)-(1-(4-((1-(3,4,5-trimethoxyphenyl)-1H-imidazol-4-yl)amino)-5,7-dihydrofuro[3,4-d]pyrimidin-2-yl)pyrrolidin-2-yl)methanol]
6 | < 100 nM | COc1cc(-n2cnc(Nc3nc(N4CC[C@@H](CO)C4)c4cccn4n3)c2)cc(OC)c1OC [Compound 283b, (R)-(1-(2-(1-(3,4,5-trimethoxyphenyl)-1H-imidazol-4-ylamino)pyrrolo[1,2-f][1,2,4]triazin-4-yl)pyrrolidin-3-yl)methanol]
7 | < 100 nM | COc1cc(-n2cnc(Nc3nc(N4CCC[C@H]4C(N)=O)nc4cc(C(F)(F)F)ccc34)c2)cc(OC)c1OC [Compound 285a, (S)-1-(7-(trifluoromethyl)-4-((1-(3,4,5-trimethoxyphenyl)-1H-imidazol-4-yl)amino)quinazolin-2-yl)pyrrolidine-2-carboxamide]
8 | < 100 nM | COc1cc(-n2cnc(Nc3nc(N4CCC[C@@H]4C(N)=O)nc4cc(F)ccc34)c2)cc(OC)c1OC [Compound 288a, (R)-1-(7-fluoro-4-((1-(3,4,5-trimethoxyphenyl)-1H-imidazol-4-yl)amino)quinazolin-2-yl)pyrrolidine-2-carboxamide]
9 | < 100 nM | COc1cc(-n2cnc(Nc3nc(N4CCC[C@H]4CO)nc4c3CCC4)c2)cc(OC)c1OC [Compound 289b, (S)-(1-(4-((1-(3,4,5-trimethoxyphenyl)-1H-imidazol-4-yl)amino)-6,7-dihydro-5H-cyclopenta[d]pyrimidin-2-yl)pyrrolidin-2-yl)methanol]
10 | < 100 nM | COc1cc(-n2cnc(Nc3nc(N4CCC[C@@H]4C(N)=O)nc4c3CCC4)c2)cc(OC)c1OC [Compound 291a, (R)-1-(4-((1-(3,4,5-trimethoxyphenyl)-1H-imidazol-4-yl)amino)-6,7-dihydro-5H-cyclopenta[d]pyrimidin-2-yl)pyrrolidine-2-carboxamide]
11 | < 100 nM | COc1cc(-n2cnc(Nc3nc(N4CCC[C@@H]4CO)nc4ccoc34)c2)cc(OC)c1OC [Compound 294a, (R)-(1-(4-((1-(3,4,5-trimethoxyphenyl)-1H-imidazol-4-yl)amino)furo[3,2-d]pyrimidin-2-yl)pyrrolidin-2-yl)methanol]
12 | < 100 nM | COc1cc(-n2cnc(Nc3nc(N4CCC[C@@H]4CO)nc4sccc34)c2)cc(OC)c1OC [Compound 297a, (R)-(1-(4-((1-(3,4,5-trimethoxyphenyl)-1H-imidazol-4-yl)amino)thieno[2,3-d]pyrimidin-2-yl)pyrrolidin-2-yl)methanol]

More lines, now with the values behind:

Row | SMILES | IC50
13 | COc1cc(-n2cnc(Nc3nc(N4CCC[C@H]4CO)nc4cc(N5CCC[C@H]5CO)ccc34)c2)cc(OC)c1OC [Compound 269b, ((2S,2′S)-1,1′-(4-((1-(3,4,5-trimethoxyphenyl)-1H-imidazol-4-yl)amino)quinazoline-2,7-diyl)bis(pyrrolidine-2,1-diyl))dimethanol] | < 100 nM
14 | COc1cc(-n2cnc(Nc3nc(N4C(=O)CC[C@H]4CO)nc4ccoc34)c2)cc(OC)c1OC [Compound 270a, (S)-5-(hydroxymethyl)-1-(4-((1-(3,4,5-trimethoxyphenyl)-1H-imidazol-4-yl)amino)furo[3,2-d]pyrimidin-2-yl)pyrrolidin-2-one] | < 100 nM
15 | COc1cc(-n2cnc(Nc3nc4c(c(N5CCC[C@H]5CO)n3)CCC4)c2)cc(OC)c1OC [Compound 271c, (S)-(1-(2-((1-(3,4,5-trimethoxyphenyl)-1H-imidazol-4-yl)amino)-6,7-dihydro-5H-cyclopenta[d]pyrimidin-4-yl)pyrrolidin-2-yl)methanol] | < 100 nM
16 | COc1cc(-n2cnc(Nc3nc4c(c(N5CCC[C@@H]5CO)n3)CCC4)c2)cc(OC)c1OC [Compound 272b, (R)-(1-(2-((1-(3,4,5-trimethoxyphenyl)-1H-imidazol-4-yl)amino)-6,7-dihydro-5H-cyclopenta[d]pyrimidin-4-yl)pyrrolidin-2-yl)methanol] | < 100 nM
17 | COc1cc(-n2cnc(Nc3nc4c(c(N5CCC[C@H]5CO)n3)CS(=O)(=O)CC4)c2)cc(OC)c1OC [Compound 273c, (S)-4-(2-(hydroxymethyl)pyrrolidin-1-yl)-2-((1-(3,4,5-trimethoxyphenyl)-1H-imidazol-4-yl)amino)-7,8-dihydro-5H-thiopyrano[4,3-d]pyrimidine 6,6-dioxide] | < 100 nM
18 | COc1cc(-n2cnc(Nc3nc(N4CCC[C@@H]4CO)nc4c3CN(C(C)C)C4=O)c2)cc(OC)c1OC [Compound 275a, (R)-2-(2-(hydroxymethyl)pyrrolidin-1-yl)-6-isopropyl-4-((1-(3,4,5-trimethoxyphenyl)-1H-imidazol-4-yl)amino)-5H-pyrrolo[3,4-d]pyrimidin-7(6H)-one] | < 100 nM
19 | COc1cc(-n2cnc(Nc3nc(N4CCC[C@H]4CO)c4ccc(F)cc4n3)c2)cc(OC)c1OC [Compound 276b, (S)-(1-(7-fluoro-2-((1-(3,4,5-trimethoxyphenyl)-1H-imidazol-4-yl)amino)quinazolin-4-yl)pyrrolidin-2-yl)methanol] | < 100 nM
20 | COc1cc(-n2cnc(Nc3nc4c(c(N5CCC[C@H]5CO)n3)COC4)c2)cc(OC)c1OC [Compound 279c, (S)-(1-(2-((1-(3,4,5-trimethoxyphenyl)-1H-imidazol-4-yl)amino)-5,7-dihydrofuro[3,4-d]pyrimidin-4-yl)pyrrolidin-2-yl)methanol] | < 100 nM
21 | COc1cc(-n2cnc(Nc3nc4c(c(N5CCC[C@@H]5CO)n3)COC4)c2)cc(OC)c1OC [Compound 280b, (R)-(1-(2-((1-(3,4,5-trimethoxyphenyl)-1H-imidazol-4-yl)amino)-5,7-dihydrofuro[3,4-d]pyrimidin-4-yl)pyrrolidin-2-yl)methanol] | < 100 nM
22 | COc1cc(-n2cnc(Nc3nc(N4CCC[C@@H]4CO)nc4c3COC4)c2)cc(OC)c1OC [Compound 282a, (R)-(1-(4-((1-(3,4,5-trimethoxyphenyl)-1H-imidazol-4-yl)amino)-5,7-dihydrofuro[3,4-d]pyrimidin-2-yl)pyrrolidin-2-yl)methanol] | < 100 nM
23 | COc1cc(-n2cnc(Nc3nc(N4CCC[C@H]4CO)nc4cc(C(F)(F)F)ccc34)c2)cc(OC)c1OC [Compound 284c, (S)-(1-(7-(trifluoromethyl)-4-((1-(3,4,5-trimethoxyphenyl)-1H-imidazol-4-yl)amino)quinazolin-2-yl)pyrrolidin-2-yl)methanol] | < 100 nM
24 | COc1cc(-n2cnc(Nc3nc(N4CCC[C@H]4CO)c4ccc(C(F)(F)F)cc4n3)c2)cc(OC)c1OC [Compound 286b, (S)-(1-(7-(trifluoromethyl)-2-((1-(3,4,5-trimethoxyphenyl)-1H-imidazol-4-yl)amino)quinazolin-4-yl)pyrrolidin-2-yl)methanol] | < 100 nM
25 | COc1cc(-n2cnc(Nc3nc(N4CCC[C@@H]4C(N)=O)nc4cc(C(F)(F)F)ccc34)c2)cc(OC)c1OC [Compound 287a, (R)-1-(7-(trifluoromethyl)-4-((1-(3,4,5-trimethoxyphenyl)-1H-imidazol-4-yl)amino)quinazolin-2-yl)pyrrolidine-2-carboxamide] | < 100 nM
26 | COc1cc(-n2cnc(Nc3nc(N4CCC[C@@H]4CO)nc4c3CCC4)c2)cc(OC)c1OC [Compound 290a, (R)-(1-(4-((1-(3,4,5-trimethoxyphenyl)-1H-imidazol-4-yl)amino)-6,7-dihydro-5H-cyclopenta[d]pyrimidin-2-yl)pyrrolidin-2-yl)methanol] | < 100 nM
27 | COc1cc(-n2cnc(Nc3nc(N4CCC[C@H]4C(N)=O)nc4c3CCC4)c2)cc(OC)c1OC [Compound 292a, (S)-1-(4-((1-(3,4,5-trimethoxyphenyl)-1H-imidazol-4-yl)amino)-6,7-dihydro-5H-cyclopenta[d]pyrimidin-2-yl)pyrrolidine-2-carboxamide] | < 100 nM
28 | COc1cc(-n2cnc(Nc3nc(N4CCC[C@@H]4CO)nc4cc(C(F)(F)F)ccc34)c2)cc(OC)c1OC [Compound 293a, (R)-(1-(7-(trifluoromethyl)-4-((1-(3,4,5-trimethoxyphenyl)-1H-imidazol-4-yl)amino)quinazolin-2-yl)pyrrolidin-2-yl)methanol] | < 100 nM
29 | COc1cc(-n2cnc(Nc3nc(N4CCC[C@@H]4CO)nc4c3CCCC4)c2)cc(OC)c1OC [Compound 295b, (R)-(1-(4-((1-(3,4,5-trimethoxyphenyl)-1H-imidazol-4-yl)amino)-5,6,7,8-tetrahydroquinazolin-2-yl)pyrrolidin-2-yl)methanol] | < 100 nM
30 | COc1cc(-n2cnc(Nc3nc(N4CCC[C@H]4CO)nc4c3CCCC4)c2)cc(OC)c1OC [Compound 296a, (S)-(1-(4-((1-(3,4,5-trimethoxyphenyl)-1H-imidazol-4-yl)amino)-5,6,7,8-tetrahydroquinazolin-2-yl)pyrrolidin-2-yl)methanol] | < 100 nM
